Data published in patent EP0183129A1, “Quinolonecarboxylic acid derivatives” (KYORIN PHARMACEUTICAL CO., LTD., priority 1984, dated 1986).
Where a name gives a salt, the structure may show the parent alone. Read-outs that look alike come from different tables or passages of the source.

Assays:
S. aureus Smith = test: In vitro antibacterial activity, MIC (standard strain); type: cell-based, Staphylococcus aureus; details: Staphylococcus aureus; S. aureus Smith; 10^6 cells/ml; standard strain; read-out: MIC
[1] = test system: Streptococcus pyogenes S-8; test: as above; type: cell-based; details: S8; Streptococcus pyogenes S-8; 10^6 cells/ml; standard strain; read-out: MIC
S. pyogenes IID 692 = test: as above; type: cell-based; details: Streptococcus pyogenes, IID692; S. pyogenes IID 692; 10^6 cells/ml; standard strain; read-out: MIC
S. pneumoniae IID 552 = test: as above; type: cell-based; details: Streptococcus pneumoniae, IID552; S. pneumoniae IID 552; 10^6 cells/ml; standard strain; read-out: MIC
[2] = test system: Escherichia coli NIHJ JC-2; test: as above; type: cell-based; details: Escherichia coli, NIHJJC2, Escherichia coli NIHJ JC-2; 10^6 cells/ml; standard strain; read-out: MIC
[3] = test system: Proteus vulgaris IFO 3167; test: as above; type: cell-based; details: IFO3167; Proteus vulgaris IFO 3167; 10^6 cells/ml; standard strain; read-out: MIC
P. mirabilis IID 994 = test: as above; type: cell-based; details: Proteus mirabilis, IID994; P. mirabilis IID 994; 10^6 cells/ml; standard strain; read-out: MIC
[4] = test system: Klebsiella pneumoniae KY(GN)6445; test: as above; type: cell-based; details: Klebsiella pneumoniae KY(GN)6445; 10^6 cells/ml; standard strain; read-out: MIC
K. pneumoniae 1-220S = test: as above; type: cell-based; details: Klebsiella pneumoniae, 1220S; K. pneumoniae 1-220S; 10^6 cells/ml; standard strain; read-out: MIC
[5] = test system: Salmonella entritidis IID 604; test: as above; type: cell-based; details: IID604; Salmonella entritidis IID 604; 10^6 cells/ml; standard strain; read-out: MIC
[6] = test system: Yersinia enterocolitica IID 981; test: as above; type: cell-based; details: IID981; Yersinia enterocolitica IID 981; 10^6 cells/ml; standard strain; read-out: MIC
[7] = test system: Serratia marcescens IID 618; test: as above; type: cell-based; details: Serratia marcescens, IID618, Serratia marcescens IID 618; 10^6 cells/ml; standard strain; read-out: MIC
S. marcescens GN 7577 = test: as above; type: cell-based; details: Serratia marcescens, GN7577; S. marcescens GN 7577; 10^6 cells/ml; standard strain; read-out: MIC
[8] = test system: Pseudomonas aeruginosa V-1; test: as above; type: cell-based; details: V1
[9] = test system: Acinetobacter anitratus IID 876; test: as above; type: cell-based; details: Acinetobacter calcoaceticus, IID876, Acinetobacter anitratus IID 876; 10^6 cells/ml; standard strain; read-out: MIC
B. fragilis 0558 = test: as above; type: cell-based, Bacteroides fragilis; details: Bacteroides fragilis, 0558, B. fragilis 0558; 10^6 cells/ml; standard strain; read-out: MIC
C. ramosum = test: as above; type: cell-based; details: Thomasclavelia ramosa; C. ramosum; 10^6 cells/ml; standard strain; read-out: MIC
S. pneumoniae 15 = test: In vitro antibacterial activity, MIC (clinical isolates); type: cell-based; details: Streptococcus pneumoniae; S. pneumoniae 15; 10^6 cells/ml; clinical isolate; read-out: MIC
S. pneumoniae 2950 = test: as above; type: cell-based; details: Streptococcus pneumoniae; S. pneumoniae 2950; 10^6 cells/ml; clinical isolate; read-out: MIC
S. pyogenes 3102 = test: as above; type: cell-based; details: Streptococcus pyogenes; S. pyogenes 3102; 10^6 cells/ml; clinical isolate; read-out: MIC
S. pyogenes 3107 = test: as above; type: cell-based; details: Streptococcus pyogenes; S. pyogenes 3107; 10^6 cells/ml; clinical isolate; read-out: MIC
S. pyogenes 4340 = test: as above; type: cell-based; details: Streptococcus pyogenes; S. pyogenes 4340; 10^6 cells/ml; clinical isolate; read-out: MIC
S. agalactiae 4394 = test: as above; type: cell-based; details: Streptococcus agalactiae; S. agalactiae 4394; 10^6 cells/ml; clinical isolate; read-out: MIC
S. agalactiae 4049 = test: as above; type: cell-based; details: Streptococcus agalactiae; S. agalactiae 4049; 10^6 cells/ml; clinical isolate; read-out: MIC
S. agalactiae 4342 = test: as above; type: cell-based; details: Streptococcus agalactiae; S. agalactiae 4342; 10^6 cells/ml; clinical isolate; read-out: MIC
S. agalactiae 4368 = test: as above; type: cell-based; details: Streptococcus agalactiae; S. agalactiae 4368; 10^6 cells/ml; clinical isolate; read-out: MIC
S. agalactiae 4468 = test: as above; type: cell-based; details: Streptococcus agalactiae; S. agalactiae 4468; 10^6 cells/ml; clinical isolate; read-out: MIC
S. faecalis 49 = test: as above; type: cell-based; details: Enterococcus faecalis; S. faecalis 49; 10^6 cells/ml; clinical isolate; read-out: MIC
S. faecalis 214 = test: as above; type: cell-based; details: Enterococcus faecalis; S. faecalis 214; 10^6 cells/ml; clinical isolate; read-out: MIC
S. faecalis 401 = test: as above; type: cell-based; details: Enterococcus faecalis; S. faecalis 401; 10^6 cells/ml; clinical isolate; read-out: MIC
S. faecalis 402 = test: as above; type: cell-based; details: Enterococcus faecalis; S. faecalis 402; 10^6 cells/ml; clinical isolate; read-out: MIC

Row | SMILES | MIC (S. aureus Smith) [µg/mL] | MIC [1] [µg/mL] | MIC (S. pyogenes IID 692) [µg/mL] | MIC (S. pneumoniae IID 552) [µg/mL] | MIC [2] [µg/mL] | MIC [3] [µg/mL] | MIC (P. mirabilis IID 994) [µg/mL] | MIC [4] [µg/mL] | MIC (K. pneumoniae 1-220S) [µg/mL] | MIC [5] [µg/mL] | MIC [6] [µg/mL] | MIC [7] [µg/mL] | MIC (S. marcescens GN 7577) [µg/mL] | MIC [9] [µg/mL] | MIC (B. fragilis 0558) [µg/mL] | MIC (C. ramosum) [µg/mL] | MIC (S. pneumoniae 15) [µg/mL] | MIC (S. pneumoniae 2950) [µg/mL] | MIC (S. pyogenes 3102) [µg/mL] | MIC (S. pyogenes 3107) [µg/mL] | also measured
1 | CNCC1CCN(c2c(F)cc3c(=O)c(C(=O)O)cn(C4CC4)c3c2F)C1 (stereo not drawn) [Example 8, 1-Cyclopropyl-6,8-difluoro-1,4-dihydro-7-(3-methylaminomethyl-l-pyrrolidinyl)-4-oxo-3-quinolinecarboxylic acid hydrochloride] | 0.025 | 0.05 | 0.05 | 0.05 | 0.025 | 0.025 | 0.05 | 0.025 | 0.1 | 0.05 | 0.1 | 0.2 | 1.56 | 0.1 | 0.39 | 0.78 | 0.05 | 0.1 | 0.05 | 0.05 | MIC ([8]; Pseudomonas aeruginosa V-1, 10^6 cells/ml, standard strain, read-out: MIC): 0.78 µg/mL; MIC (S. pyogenes 4340): 0.05 µg/mL; MIC (S. agalactiae 4394): 0.1 µg/mL; MIC (S. agalactiae 4049): 0.2 µg/mL; MIC (S. agalactiae 4342): 0.2 µg/mL; MIC (S. agalactiae 4368): 0.1 µg/mL; MIC (S. agalactiae 4468): 0.1 µg/mL; MIC (S. faecalis 49): 0.1 µg/mL; MIC (S. faecalis 214): 0.05 µg/mL; MIC (S. faecalis 401): 0.1 µg/mL; MIC (S. faecalis 402): 0.2 µg/mL
2 | CNCC1CCN(c2cc3c(cc2F)c(=O)c(C(=O)O)cn3C2CC2)C1 (stereo not drawn) [Example 9, 1-Cyclopropyl-6-fluoro-1,4-dihydro-7-(3-methylaminomethyl-l-pyrrolidinyl)-4-oxo-3-quinolinecarboxylic acid hydrochloride] | 0.39 | 0.2 | 0.2 | 0.39 | 0.05 | 0.1 | 0.39 | 0.1 | 0.39 | 0.2 | 0.39 | 0.39 | 6.25 | 0.78 | 12.5 | 12.5 | 0.39 | 0.78 | 0.1 | 0.1 | MIC ([8]; Pseudomonas aeruginosa): 1.56 µg/mL; MIC (S. pyogenes 4340): 0.2 µg/mL; MIC (S. agalactiae 4394): 0.78 µg/mL; MIC (S. agalactiae 4049): 0.78 µg/mL; MIC (S. agalactiae 4342): 0.39 µg/mL; MIC (S. agalactiae 4368): 0.2 µg/mL; MIC (S. agalactiae 4468): 0.39 µg/mL; MIC (S. faecalis 49): 0.39 µg/mL; MIC (S. faecalis 214): 0.39 µg/mL; MIC (S. faecalis 401): 0.78 µg/mL; MIC (S. faecalis 402): 0.78 µg/mL
